We go through one compound from the NIST ThermoML archive (doi:10.1016/j.jct.2016.06.020).

A short description of data set [1]: Molar enthalpy of transition or fusion. The conditions noted are these: Crystal; DSC.
For data set [2] the following is noted: Crystal; DTA.

Numbers after ± are expanded uncertainties.

For `CCN1C(=O)N(C)[C@@H]2[C@H]1N(C)C(=O)N2CC` (racemic), in data set [1], the “Molar enthalpy of transition or fusion” value turned out to be 4.97 ± 0.167 kcal/mol. In data set [2], the Normal melting temperature was 118.6 ± 0.6 °C.
